Where a name gives a salt, the structure may show the parent alone.
System: T1, A. placomyces laccase
T1 construct: gene EC 1.10.3.2; native, purified from fruiting bodies; 68 kDa monomer
Assay: spectrophotometric oxidation assay, Lineweaver-Burk plot
Assay type: biochemical, Agaricus placomyces
Settings: 50 mM sodium acetate, pH 5.2, 30°C

| Km [µM] | Compound |
| --- | --- |
| 775 | CCn1c(=NN=c2sc3cc(S(=O)(=O)O)ccc3n2CC)sc2cc(S(=O)(=O)O)ccc21 [ABTS, 2,7′-azinobis[3-ethylbenzothiazolone-6-sulfonic acid] diammonium salt] |
| 392 | Oc1ccc(O)cc1 [hydroquinone] |

— article PMC3471028, “A Laccase with Antiproliferative and HIV-I Reverse Transcriptase Inhibitory Activities from the Mycorrhizal Fungus Agaricus placomyces” (Journal of Biomedicine and Biotechnology, 2012)
